Where “and” joins values, the source holds several entries; their conditions need not be identical. Identical values can stand only once.
Experiments:
[1] = molecular target: site I of HSA (Homo sapiens, UniProt P02768); assay: Fluorescence competitive binding assay with site‐selective probe DNSA; conditions: for Inhibition ratio, site I / Competitive inhibition rate of the probe binding, Site I: DNSA probe; for inhibition at 100 µM: human, defatted human serum albumin (HSA) in phosphate buffer, pH 7.4, probe dansylamide (DNSA); for Competitive inhibition rate of the probe binding, Site I: 100 µM, n = 3, mean ± SE
Chain of site I of HSA (P02768 25-609): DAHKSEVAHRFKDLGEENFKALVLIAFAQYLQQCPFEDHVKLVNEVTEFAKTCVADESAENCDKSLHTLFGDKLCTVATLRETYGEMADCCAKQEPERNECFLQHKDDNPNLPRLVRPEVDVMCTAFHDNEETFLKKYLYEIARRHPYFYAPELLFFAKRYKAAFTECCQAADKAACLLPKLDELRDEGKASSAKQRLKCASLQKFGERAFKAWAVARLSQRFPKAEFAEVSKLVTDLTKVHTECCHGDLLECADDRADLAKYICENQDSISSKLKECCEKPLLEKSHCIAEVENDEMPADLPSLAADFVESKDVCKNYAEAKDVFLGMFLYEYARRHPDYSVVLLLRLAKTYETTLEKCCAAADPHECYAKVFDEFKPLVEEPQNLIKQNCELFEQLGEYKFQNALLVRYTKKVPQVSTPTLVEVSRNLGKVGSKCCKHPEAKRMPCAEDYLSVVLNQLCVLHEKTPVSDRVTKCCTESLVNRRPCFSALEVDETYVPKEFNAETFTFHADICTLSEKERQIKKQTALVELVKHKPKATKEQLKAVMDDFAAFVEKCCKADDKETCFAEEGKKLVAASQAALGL
Description: (§1) A fluorescent dye cocktail containing 0.33 mM BD140 and 1 mM DNSA was prepared in DMSO. Defatted HSA (A3782‐1G; Sigma‐Aldrich) was dissolved in phosphate buffer (pH 7.4) at a concentration of 0.67 mg/ml. Each flavonoid was dissolved in DMSO (stock solution) at 100 times the test concentration. Subsequently, 637 µl HSA solution, 6.5 µl fluorescent dye cocktail, and 6.5 µl flavonoid were mixed and divided into three wells on a 96‐well multi‐black plate. The final concentration of flavonoids was 1–100 μM. […] The HSA‐binding affinities of the flavonoids were evaluated by measuring the competitive inhibition rate of the probes binding to flavonoids according to Equation (1): (1) Flavonoidinhibitionpercentage(%)=F1‐F2/F1×100, where F 1 is the fluorescence intensity of DMSO and F 2 represents the fluorescence intensity of each flavonoid.

[2] = Tissue distribution after 22 days of 8‐PN or naringenin mixed diet; format: in vivo, C57/BL6 mice; conditions: for Percentage of aglycone in the liver: aglycone to total; for 8‐PN aglycone in the liver: without deconjugation
Description: We planned the nutritional composition and feeding period according to previous similar research (Andres-Lacueva et al., [2012]; Bieger et al., [2008]; Boer et al., [2005]; Mukai et al., [2013]; Takumi et al., [2011]). […] Though this dose concentration may not be achieved through regular diet or supplementation, this concentration was used in accordance with previous studies that evaluated the tissue distribution of flavonoids (0.2% [w/w]) (Mukai et al., [2013]; Takumi et al., [2011]). The mice were fed each diet via normal oral feeding for 22 days. In the pharmacokinetic study (Section 2.5), we administered each nutrient to mice at a dose of 50 mg/kg body weight (BW) via oral gavage after 18 h of starvation. Although this dose concentration may not reflect regular diet or supplementation, this or higher concentrations have been applied for pharmacokinetic study of flavonoids (Bai et al., [2020]; Hung et al., [2018]; Mukai et al., [2013]). All experimental protocols were approved by the Committee on Animal Experiments of Tokushima University (approval number: 11013). All efforts were made to minimize animal suffering. Seven-week-old male C57/BL6 mice (Japan SLC) were housed in a room maintained at 23 ± 1°C under a 12-h/12-h light/dark cycle. Diets consisted of 8-PN or naringenin (0.56 mmol/kg diet) mixed with AIN-93M (AIN-93M; Oriental Yeast Company), with the cellulose contents reduced to adjust the composition of other nutrients. The mice (n = 7 or 8) were fed these diets via normal oral feeding for 22 days and allowed free access to water. The liver, kidneys, quadricep muscles, pancreas, lungs, brain, spleen, and heart were collected from the mice under anesthesia and weighed. Before freezing, the liver tissues were flushed with ice-cold phosphate-buffered saline (PBS, pH 7.4) to avoid blood contamination. All samples were stored at -80°C under N2 gas until extraction of flavonoid. Sample preparation was performed according to a previous report (Mukai et al., [2013]). Each tissue was homogenized in PBS on ice (nine times the volume of the tissue wet weight) using a Teflon homogenizer (As One). […] The hydrolysates were then subjected to extraction three times with equal volumes of ethyl acetate and evaporated using a centrifugal evaporator (CVE-100; Tokyo Rikakikai). The extracts were dissolved in 50 μl of methanol containing 0.5% phosphoric acid. Then, 20 μl from each sample was injected into the HPLC-UV system. […] Shimadzu) with a Cadenza CD-C18 HPLC column (3 μm, 4.6 × 150 mm; […]). […] 8-PN and naringenin amounts were determined using an internal standard method. […] Since a clear peak was actually detected for 8-PN over 2 pmol (0.1 μM), and for naringenin over 4 pmol (0.2 μM) based on visual evaluation, we determined these concentrations were the LODs for each flavonoid.

[3] = set-up: method as in Rad et al., 2006; conditions: postmenopausal women, mostly conjugated metabolites, ref Rad et al., 2006; cited from earlier work
[4] = molecular target: site II of HSA (Homo sapiens, UniProt P02768); assay: Fluorescence competitive binding assay with site‐selective probe BD140; conditions: for inhibition at 100 µM: human, defatted human serum albumin (HSA) in phosphate buffer, pH 7.4, probe BD140; for Competitive inhibition rate of the probe binding, Site II: BD140 probe, 100 µM, n = 3, mean ± SE
Chain of site II of HSA (P02768 25-609): as above
Description: as §1

SMILES	Inhibition ratio, site I ([1]; 1 µM) [%]	Inhibition ratio, site I ([1]; 50 µM) [%]	inhibition at 100 µM [1] [%]	inhibition at 100 µM [4] [%]	Competitive inhibition rate of the probe binding, Site I [1]	Competitive inhibition rate of the probe binding, Site II [4]	further results
CC(C)=CCc1c(O)cc(O)c2c1O[C@H](c1ccc(O)cc1)CC2=O [8‐PN, 8‐Prenylnaringenin]	10.3	36.7	61.1 ± 0.6	28.3 ± 2.8			Percentage of aglycone in the liver ([2]; average of 7 mice): 11.7%; 8‐PN aglycone in the liver ([2]; average of 7 mice): 1.58 nmol/g wet tissue; Percentage of aglycone in the liver ([2]; individual mice #1-7): 15.9% and 20.9% and 9.5% and 6.3% and 7.8% and 5.7% and 15.7%; 8‐PN aglycone in the liver ([2]; individual mice #1-7, 22 days diet): 0.62 nmol/g wet tissue and 3.23 nmol/g wet tissue and 1.62 nmol/g wet tissue and 1.50 nmol/g wet tissue and 0.66 nmol/g wet tissue and 1.18 nmol/g wet tissue and 2.24 nmol/g wet tissue; Time of absorption into the bloodstream after oral administration [3]: 1 to 1.5 h
CC(C)=CCc1c(O)cc(O)c2c1OC(c1ccc(O[C@@H]3O[C@H](C(=O)O)[C@@H](O)[C@H](O)[C@H]3O)cc1)CC2=O (stereo partly shown) [8‐PN‐4′G, 8‐PN 4′‐glucuronide]					n.d. ^a (The result without competitive inhibition (≤0) with the fluorescent probe is shown as not determined (n.d.))	n.d. ^a (The result without competitive inhibition (≤0) with the fluorescent probe is shown as not determined (n.d.))	
CC(C)=CCc1c(O[C@@H]2O[C@H](C(=O)O)[C@@H](O)[C@H](O)[C@H]2O)cc(O)c2c1OC(c1ccc(O)cc1)CC2=O (stereo partly shown) [8‐PN‐7G, 8‐PN 7‐glucuronide]	12.8	37.9			37.2 ± 0.6 %	n.d. ^a (The result without competitive inhibition (≤0) with the fluorescent probe is shown as not determined (n.d.))	Binding constant to HSA ([1]; from competition profile for site I (Figure 3)): 24200 M
O=C1C[C@@H](c2ccc(O[C@@H]3O[C@H](C(=O)O)[C@@H](O)[C@H](O)[C@H]3O)cc2)Oc2cc(O)cc(O)c21 [N4′G, Naringenin 4′‐glucuronide, reference compound]					5.2 ± 2.8%	2.4 ± 2.4%	
O=C1C[C@@H](c2ccc(O)cc2)Oc2cc(O[C@@H]3O[C@H](C(=O)O)[C@@H](O)[C@H](O)[C@H]3O)cc(O)c21 [N7G, naringenin 7‐glucuronide, reference compound]					10.0 ± 3.0%	9.6 ± 4.8%	
O=C1C[C@@H](c2ccc(O)cc2)Oc2cc(O)cc(O)c21 [Naringenin]			25.3 ± 0.4	8.3 ± 3.9			

Source: article PMC9007292, “8‐Prenylnaringenin tissue distribution and pharmacokinetics in mice and its binding to human serum albumin and cellular uptake in human embryonic kidney cells” (Food Science & Nutrition, 2022)
